Assay results: patent US10899755B2, “Benzothiazole compounds and uses thereof” (Incyte Corporation, priority 2018, dated 2021)

Target: HPK1 (Homo sapiens, UniProt Q92918)
Test: HPK1 Kinase Binding Assay
Conditions: active HPK1 (SignalChem M23-11G), tracer 222, LanthaScreen Eu-Anti GST antibody, one hour incubation at 25° C.
Protocol: A stock solution of 1 mM test compound was prepared in DMSO. The compound plate was prepared by 3-fold and 11-point serial dilutions. 0.1 μL of the compound in DMSO was transferred from the compound plate to the white 384 well polystyrene plates. The assay buffer contained 50 mM HEPES, pH 7.5, 0.01% Tween-20, 5 mM MgCl2, 0.01% BSA, and 5 mM DTT. 5 μL of 4 nM active HPK1 (SignalChem M23-11G) prepared in the buffer was added to the plate. The enzyme concentration given was based on the given stock concentration reported by the vender. […] After one hour incubation at 25° C., the plates were read on a PHERAstar FS plate reader (BMG Labtech). Ki values were determined.

Chain of HPK1 (Q92918 whole entry, looked up): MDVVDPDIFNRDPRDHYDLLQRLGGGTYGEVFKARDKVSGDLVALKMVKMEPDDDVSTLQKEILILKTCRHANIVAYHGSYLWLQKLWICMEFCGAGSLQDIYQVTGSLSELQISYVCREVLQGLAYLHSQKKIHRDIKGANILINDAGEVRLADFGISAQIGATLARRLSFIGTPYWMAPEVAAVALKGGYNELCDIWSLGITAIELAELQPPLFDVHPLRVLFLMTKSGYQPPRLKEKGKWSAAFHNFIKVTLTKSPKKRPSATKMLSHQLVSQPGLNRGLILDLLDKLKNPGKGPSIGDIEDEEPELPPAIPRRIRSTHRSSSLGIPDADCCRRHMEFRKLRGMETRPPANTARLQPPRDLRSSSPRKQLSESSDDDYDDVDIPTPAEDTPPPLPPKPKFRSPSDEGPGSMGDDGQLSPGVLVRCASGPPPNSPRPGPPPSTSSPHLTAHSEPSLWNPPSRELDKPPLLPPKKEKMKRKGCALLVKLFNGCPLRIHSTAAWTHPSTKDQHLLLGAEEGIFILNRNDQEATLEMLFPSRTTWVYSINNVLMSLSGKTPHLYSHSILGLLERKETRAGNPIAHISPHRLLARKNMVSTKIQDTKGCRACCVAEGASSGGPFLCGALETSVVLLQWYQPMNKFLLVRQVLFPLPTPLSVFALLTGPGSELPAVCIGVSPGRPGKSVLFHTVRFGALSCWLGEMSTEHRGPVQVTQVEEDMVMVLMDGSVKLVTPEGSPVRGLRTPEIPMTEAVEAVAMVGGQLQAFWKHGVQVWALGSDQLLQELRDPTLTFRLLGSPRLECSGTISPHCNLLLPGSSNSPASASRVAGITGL

Row | Ki [nM] | SMILES
1 | < 100 | Cc1nc2c(N3CC[C@@H](N)C3)c(NC(=O)c3ccnc(-c4c(C)cccc4F)n3)ccc2s1 [Example 2, (R)—N-(4-(3-Aminopyrrolidin-1-yl)-2-methylbenzo[d]thiazol-5-yl)-2-(2-fluoro-6-methylphenyl)pyrimidine-4-carboxamide]
2 | < 100 | COc1cccc(F)c1-c1nccc(C(=O)Nc2cc(Cl)c3sc(C)nc3c2N2CC[C@H](N)C2)n1 [Example 5, (S)—N-(4-(3-Aminopyrrolidin-1-yl)-7-chloro-2-methylbenzo[d]thiazol-5-yl)-2-(2-fluoro-6-methoxyphenyl)pyrimidine-4-carboxamide]
3 | < 100 | COc1cccc(F)c1-c1nccc(C(=O)Nc2cc(Br)c3sc(C)nc3c2N2CC[C@H](N)C2)n1 [Example 6, (S)—N-(4-(3-Aminopyrrolidin-1-yl)-7-bromo-2-methylbenzo[d]thiazol-5-yl)-2-(2-fluoro-6-methoxyphenyl)pyrimidine-4-carboxamide]
4 | < 100 | COCc1nc2c(N3CCC[C@H]3CN)c(NC(=O)c3ccnc(-c4c(F)cccc4OC)n3)ccc2s1 [Example 9, (S)—N-(4-(2-(Aminomethyl)pyrrolidin-1-yl)-2-(methoxymethyl)benzo[d]thiazol-5-yl)-2-(2-fluoro-6-methoxyphenyl)pyrimidine-4-carboxamide]
5 | < 100 | COCCc1nc2c(N3CCC[C@H]3CN)c(NC(=O)c3ccnc(-c4c(F)cccc4OC)n3)ccc2s1 [Example 10, (S)—N-(4-(2-(Aminomethyl)pyrrolidin-1-yl)-2-(2-methoxyethyl)benzo[d]thiazol-5-yl)-2-(2-fluoro-6-methoxyphenyl)pyrimidine-4-carboxamide]
6 | < 100 | COc1cccc(F)c1-c1nccc(C(=O)Nc2ccc3sc(C)nc3c2N2C[C@H](N)C[C@H]2CO)n1 [Example 11, N-(4-((2S,4R)-4-Amino-2-(hydroxymethyl)pyrrolidin-1-yl)-2-methylbenzo[d]thiazol-5-yl)-2-(2-fluoro-6-methoxyphenyl)pyrimidine-4-carboxamide]
7 | < 100 | CCc1nc2c(N3C[C@@H](N)C[C@H]3CO)c(NC(=O)c3ccnc(-c4c(F)cccc4OC)n3)ccc2s1 [Example 12, N-(4-((2S,4S)-4-Amino-2-(hydroxymethyl)pyrrolidin-1-yl)-2-ethylbenzo[d]thiazol-5-yl)-2-(2-fluoro-6-methoxyphenyl)pyrimidine-4-carboxamide]

Second part, the molecule before the results:

Row | SMILES | Ki [nM]
8 | Cc1nc2c(N3CC[C@@H](N)C3)c(NC(=O)c3ccnc(-c4c(F)cccc4F)n3)ccc2s1 [Example 1, (R)—N-(4-(3-Aminopyrrolidin-1-yl)-2-methylbenzo[d]thiazol-5-yl)-2-(2,6-difluorophenyl)pyrimidine-4-carboxamide] | < 100
9 | CNCc1cc(C)c(-c2nccc(C(=O)Nc3ccc4sc(C)nc4c3N3CC[C@@H](N)C3)n2)c(F)c1 [Example 4, (R)—N-(4-(3-Aminopyrrolidin-1-yl)-2-methylbenzo[d]thiazol-5-yl)-2-(2-fluoro-6-methyl-4-((methylamino)methyl)phenyl)pyrimidine-4-carboxamide] | < 100
10 | COc1cccc(F)c1-c1nccc(C(=O)Nc2cc(C)c3sc(C)nc3c2N2CC[C@H](N)C2)n1 [Example 7, (S)—N-(4-(3-Aminopyrrolidin-1-yl)-2,7-dimethylbenzo[d]thiazol-5-yl)-2-(2-fluoro-6-methoxyphenyl)pyrimidine-4-carboxamide] | < 100
11 | COc1cccc(F)c1-c1nccc(C(=O)Nc2cc(C#N)c3sc(C)nc3c2N2CC[C@H](N)C2)n1 [Example 8, (S)—N-(4-(3-Aminopyrrolidin-1-yl)-7-cyano-2-methylbenzo[d]thiazol-5-yl)-2-(2-fluoro-6-methoxyphenyl)pyrimidine-4-carboxamide] | < 100
12 | COc1cccc(F)c1-c1nccc(C(=O)Nc2ccc3sc(C(C)C)nc3c2N2C[C@@H](N)C[C@H]2CO)n1 [Example 13, N-(4-((2S,4S)-4-Amino-2-(hydroxymethyl)pyrrolidin-1-yl)-2-isopropylbenzo[d]thiazol-5-yl)-2-(2-fluoro-6-methoxyphenyl)pyrimidine-4-carboxamide] | < 100
